Results reported in patent US9278941B2, “Azole derivative and uses thereof” (Kureha Corporation, priority 2011, dated 2016).

Key:
[1] = system: wheat leaf rust; experiment: Rust control effect on wheat, foliar spray treatment; assay type: in vivo; settings: wettable powder foliar spray 1,000 L/ha, twelve days after inoculation
[2] = system: Wheat leaf blight (Septoria tritici); experiment: Antifungal test against wheat leaf blight (PDA plate); settings: 19 days at 25° C.
Experimental: Wheat leaf blight (Septoria tritici) cultured beforehand in a medium plate was punched out with a 4 mm-diameter cork borer, and inoculated in the plate media containing the agent. After inoculation, they were cultured for 19 days at 25° C., and the growth of the fungus was determined by the diameter of the growth. The growth rate of the fungus in the plate media containing the agent was compared to the growth rate of the fungus in the plate medium not containing the agent, and the filamentous fungi inhibition rate was determined using the following equation. In the equation, R is the filamentous fungi inhibition rate (%), dc is the diameter of the fungal growth in the untreated plate media, and dt is the diameter of the fungal growth in the treated plate media. R=100(dc−dt)/dc

[3] = system: wheat leaf blight; experiment: Leaf blotch control effect on wheat, foliar spray treatment; settings: wettable powder foliar spray 1,000 L/ha, thirty days after inoculation
Experimental: After blow drying the sprayed leaves, the plants were sprinkled and inoculated with wheat leaf blight. Thirty days after inoculation, the morbidity of the wheat to powdery mildew was evaluated according to the criteria shown in Table 3, and the preventative value was calculated using the following equation. When the average morbidity of the sprayed plot was higher than the average morbidity of the unsprayed plot, the preventative value was 0%. Preventative value (%)=(1−(average morbidity of the sprayed plot/average morbidity of the unsprayed plot))×100.

SMILES: CC1(C)CCC(Cc2ccc(Cl)cc2)C1(O)Cn1cncn1 (stereo not shown) [Metconazole, reference compound]
- Preventative Value (%) ([1]; sample conc. 0.8 mg/L): 34.1%
- Preventative Value (%) ([1]; sample conc. 3.1 mg/L): 81.1%
- Antifungal Index ([2]; sample conc. 0.31 mg/L): 1 (<60%)
- Antifungal Index ([2]; sample conc. 0.63 mg/L): 2 (70%-60%)
- Antifungal Index ([2]; sample conc. 1.25 mg/L): 4 (90%-80%)
- Preventative Value (%) ([3]; sample conc. 12.5 mg/L): 0%
- Preventative Value (%) ([3]; sample conc. 50 mg/L): 62.5%
